# Laboratory results from patent publication US9850283B2, “Macrocyclic inhibitors of the PD-1/PD-L1 and CD80(B7-1)/PD-L1 protein/protein interactions” (BRISTOL-MYERS SQUIBB COMPANY, priority 2013, dated 2017).
# Positions of bridges follow the written chain, without caps; N, C: chain ends. Non-standard residues stand in square brackets, D forms with d. Residues, ends and D or L forms follow the SMILES beside them. Ala(benzothiazol-2-yl) = N[C@@H](Cc1nc2ccccc2s1)C(=O)O; Ala(indol-4-yl) = N[C@@H](Cc1cccc2[nH]ccc12)C(=O)O; Trp(1-Me) = Cn1cc(C[C@H](N)C(=O)O)c2ccccc21; Phe(4-Cl) = N[C@@H](Cc1ccc(Cl)cc1)C(=O)O; Bta = N[C@@H](Cc1csc2ccccc12)C(=O)O; Hyp = O=C(O)[C@@H]1C[C@@H](O)CN1; NMeNle = CCCC[C@H](NC)C(=O)O; NMeA = CN[C@@H](C)C(=O)O; Dap = NC[C@H](N)C(=O)O; Aib = CC(C)(N)C(=O)O; Sar = CNCC(=O)O
# How the values were obtained:
# Human PD-L1/PD-1 = molecular target: T1, Human PD-L1/PD-1 (Homo sapiens, UniProt Q9NZQ7); test: HTRF PD-1-Ig/PD-L1-His binding assay (human PD-L1); details: cluster symbol; read-out: HTRF IC50 cluster
# T1 construct: made in house; host or cells: HEK293T
# T1 sequence (Q9NZQ7 with tags, fused parts or gaps): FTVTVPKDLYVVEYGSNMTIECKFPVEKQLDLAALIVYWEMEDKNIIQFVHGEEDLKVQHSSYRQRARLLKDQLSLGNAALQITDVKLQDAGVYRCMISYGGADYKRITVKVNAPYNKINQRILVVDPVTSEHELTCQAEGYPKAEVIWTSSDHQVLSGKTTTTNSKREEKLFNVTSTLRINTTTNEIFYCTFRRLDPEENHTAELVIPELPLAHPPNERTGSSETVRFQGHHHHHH
# Method in brief: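 Interaction of Fc-tagged soluble PD-1 with His-tagged soluble PD-L1 is monitored by time-resolved FRET. Donor is europium cryptate anti-Ig (1 nM final) and acceptor is APC anti-His (20 nM final). Assay buffer is dPBS with 0.1% BSA and 0.05% Tween-20.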
# [1] = molecular target: T2, LK35.2-hPD-L1 cells / PE-labeled PD-1-Ig (Homo sapiens, UniProt Q9NZQ7); test: LK35.2-hPD-L1 cell binding high-content screening assay; assay type: cell-based; details: cluster symbol; cell line of CBA not given (LK35.2-hPD-L1 or 293T-hPD-L1); read-out: CBA IC50 cluster
# T2 construct: expressed in transfected cells; host or cells: LK35.2 mouse B cell line
# T2 sequence (Q9NZQ7 19-290): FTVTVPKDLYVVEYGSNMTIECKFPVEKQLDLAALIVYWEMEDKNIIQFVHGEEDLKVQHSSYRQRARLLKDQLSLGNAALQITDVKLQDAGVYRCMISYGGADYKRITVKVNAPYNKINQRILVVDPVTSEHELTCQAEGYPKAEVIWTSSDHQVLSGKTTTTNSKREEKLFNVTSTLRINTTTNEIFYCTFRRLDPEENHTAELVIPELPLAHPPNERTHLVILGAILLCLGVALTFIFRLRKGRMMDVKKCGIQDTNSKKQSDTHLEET
# Method in brief: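 Compound effect on PD-1/PD-L1 binding is measured by imaging cell-associated phycoerythrin signal. Human PD-1-Ig (PE on Ig tag, 1 nM final) is applied with compound to a murine B cell line overexpressing human PD-L1 for 1 h at 37 °C in serum-containing RPMI.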
IC50 (Human PD-L1/PD-1) [nM],IC50 [1] [nM],Structure (SMILES)
> 30.5,> 74.3,CCCC[C@H]1C(=O)N(C)[C@@H](CCCC)C(=O)N[C@@H](CCCNC(=N)N)C(=O)N[C@H](C(=O)NCC(N)=O)CSCC(=O)N[C@@H](Cc2ccccc2)C(=O)N(C)[C@@H](C)C(=O)N[C@@H](CC(N)=O)C(=O)N2CCC[C@H]2C(=O)N[C@@H](Cc2cnc[nH]2)C(=O)N[C@@H](CC(C)C)C(=O)N(C)CC(=O)N[C@@H](Cc2c[nH]c3ccccc23)C(=O)NC(C)(C)C(=O)N[C@@H](Cc2c[nH]c3ccccc23)C(=O)N1C [Example 1116] ({CH2CO}-F[NMeA]NPHL[Sar]W[Aib]W[NMeNle][NMeNle]RCG-NH2; thioether N-14)
6.76 to 30.3,4.78 to 72.9,CCCC[C@H]1C(=O)N(C)[C@@H](CCCC)C(=O)N[C@@H](CCCNC(=N)N)C(=O)N[C@H](C(=O)NCC(N)=O)CSCC(=O)N[C@@H](Cc2ccc(Cl)cc2)C(=O)N(C)[C@@H](C)C(=O)N[C@@H](CC(N)=O)C(=O)N2CCC[C@H]2C(=O)N[C@@H](Cc2cnc[nH]2)C(=O)N[C@@H](CC(C)C)C(=O)N2CCC[C@H]2C(=O)N[C@@H](Cc2c[nH]c3ccccc23)C(=O)N[C@@H](CO)C(=O)N[C@@H](Cc2c[nH]c3ccccc23)C(=O)N1C [Example 1117] ({CH2CO}-[Phe(4-Cl)][NMeA]NPHLPWSW[NMeNle][NMeNle]RCG-NH2; thioether N-14)
6.76 to 30.3,0.158 to 4.71,CCCC[C@H]1C(=O)N(C)[C@@H](CCCC)C(=O)N[C@@H](CCCNC(=N)N)C(=O)N[C@H](C(=O)NCC(N)=O)CSCC(=O)N[C@@H](Cc2ccc(O)cc2)C(=O)N(C)[C@@H](C)C(=O)N[C@@H](CC(N)=O)C(=O)N2CCC[C@H]2C(=O)N[C@@H](CN)C(=O)N[C@@H](CC(C)C)C(=O)N2C[C@H](O)C[C@H]2C(=O)N[C@@H](Cc2c[nH]c3ccccc23)C(=O)N[C@@H](CO)C(=O)N[C@@H](Cc2csc3ccccc23)C(=O)N1C [Example 1118] ({CH2CO}-Y[NMeA]NP[Dap]L[Hyp]WS[Bta][NMeNle][NMeNle]RCG-NH2; thioether N-14)
6.76 to 30.3,0.158 to 4.71,CCCC[C@H]1C(=O)N(C)[C@@H](CCCC)C(=O)N[C@@H](CCCNC(=N)N)C(=O)N[C@H](C(=O)NCC(N)=O)CSCC(=O)N[C@@H](Cc2ccc(O)cc2)C(=O)N(C)[C@@H](C)C(=O)N[C@@H](CC(N)=O)C(=O)N2CCC[C@H]2C(=O)N[C@@H](Cc2cnc[nH]2)C(=O)N[C@@H](CC(C)C)C(=O)N2C[C@H](O)C[C@H]2C(=O)N[C@@H](Cc2c[nH]c3ccccc23)C(=O)N[C@@H](CO)C(=O)N[C@@H](Cc2c[nH]c3ccccc23)C(=O)N1C [Example 1119]
6.76 to 30.3,0.158 to 4.71,CCCC[C@H]1C(=O)N(C)[C@@H](CCCC)C(=O)N[C@@H](CCCNC(=N)N)C(=O)N[C@H](C(=O)NCC(N)=O)CSCC(=O)N[C@@H](Cc2cccc3[nH]ccc23)C(=O)N(C)[C@@H](C)C(=O)N[C@@H](CC(N)=O)C(=O)N2CCC[C@H]2C(=O)N[C@@H](Cc2cnc[nH]2)C(=O)N[C@@H](CC(C)C)C(=O)N2CCC[C@H]2C(=O)N[C@@H](Cc2c[nH]c3ccccc23)C(=O)N[C@@H](CO)C(=O)N[C@@H](Cc2csc3ccccc23)C(=O)N1C [Example 1120] ({CH2CO}-[Ala(indol-4-yl)][NMeA]NPHLPWS[Bta][NMeNle][NMeNle]RCG-NH2; thioether N-14)
6.76 to 30.3,0.158 to 4.71,CCCC[C@H]1C(=O)N(C)[C@@H](CCCC)C(=O)N[C@@H](C)C(=O)N[C@H](C(=O)NCC(N)=O)CSCC(=O)N[C@@H](Cc2ccc(O)cc2)C(=O)N(C)[C@@H](C)C(=O)N[C@@H](CC(=O)O)C(=O)N2CCC[C@H]2C(=O)N[C@@H](Cc2cnc[nH]2)C(=O)N[C@@H](CC(C)C)C(=O)N2CCC[C@H]2C(=O)N[C@@H](Cc2c[nH]c3ccccc23)C(=O)N[C@@H](CO)C(=O)N[C@@H](Cc2c[nH]c3ccccc23)C(=O)N1C [Example 1121] ({CH2CO}-Y[NMeA]DPHLPWSW[NMeNle][NMeNle]ACG-NH2; thioether N-14)
6.76 to 30.3,0.158 to 4.71,CCCC[C@H]1C(=O)N(C)[C@@H](CCCC)C(=O)N[C@@H](CCCNC(=N)N)C(=O)N[C@H](C(=O)NCC(N)=O)CSCC(=O)N[C@@H](Cc2ccc(O)cc2)C(=O)N(C)[C@@H](C)C(=O)N[C@@H](CC(=O)O)C(=O)N2CCC[C@H]2C(=O)N[C@@H](Cc2cnc[nH]2)C(=O)N[C@@H](CC(C)C)C(=O)N2CCC[C@H]2C(=O)N[C@@H](Cc2c[nH]c3ccccc23)C(=O)N[C@@H](CO)C(=O)N[C@@H](Cc2c[nH]c3ccccc23)C(=O)N1C [Example 1122] ({CH2CO}-Y[NMeA]DPHLPWSW[NMeNle][NMeNle]RCG-NH2; thioether N-14)
0.385 to 6.74,0.158 to 4.71,CCCC[C@H]1C(=O)N(C)[C@@H](CCCC)C(=O)N[C@@H](CCCN)C(=O)N[C@H](C(=O)NCC(N)=O)CSCC(=O)N[C@@H](Cc2ccc(O)cc2)C(=O)N(C)[C@@H](C)C(=O)N[C@@H](CC(N)=O)C(=O)N2CCC[C@H]2C(=O)N[C@@H](Cc2cnc[nH]2)C(=O)N[C@@H](CC(C)C)C(=O)N2C[C@H](O)C[C@H]2C(=O)N[C@@H](Cc2c[nH]c3ccccc23)C(=O)N[C@@H](CO)C(=O)N[C@@H](Cc2c[nH]c3ccccc23)C(=O)N1C [Example 1123]
6.76 to 30.3,4.78 to 72.9,CCCC[C@H]1C(=O)N(C)[C@@H](CCCC)C(=O)N[C@@H](CCCNC(=N)N)C(=O)N[C@H](C(=O)NCC(N)=O)CSCC(=O)N[C@@H](Cc2ccc(Cl)cc2)C(=O)N(C)[C@@H](C)C(=O)N[C@@H](CC(N)=O)C(=O)N2CCC[C@H]2C(=O)N[C@@H](Cc2cnc[nH]2)C(=O)N[C@@H](CC(C)C)C(=O)N2CCC[C@H]2C(=O)N[C@@H](Cc2c[nH]c3ccccc23)C(=O)N[C@@H](CO)C(=O)N[C@@H](Cc2csc3ccccc23)C(=O)N1C [Example 1124] ({CH2CO}-[Phe(4-Cl)][NMeA]NPHLPWS[Bta][NMeNle][NMeNle]RCG-NH2; thioether N-14)
6.76 to 30.3,0.158 to 4.71,CCCC[C@H]1C(=O)N(C)[C@@H](CCCC)C(=O)N[C@@H](CCCNC(=N)N)C(=O)N[C@H](C(=O)NCC(N)=O)CSCC(=O)N[C@@H](Cc2ccc(O)cc2)C(=O)N(C)[C@@H](C)C(=O)N[C@@H](CC(N)=O)C(=O)N2CCC[C@H]2C(=O)N[C@@H](Cc2cnc[nH]2)C(=O)N[C@@H](CC(C)C)C(=O)N2CC(F)(F)C[C@H]2C(=O)N[C@@H](Cc2c[nH]c3ccccc23)C(=O)N[C@@H](CO)C(=O)N[C@@H](Cc2c[nH]c3ccccc23)C(=O)N1C [Example 1126]
0.385 to 6.74,0.158 to 4.71,CCCC[C@H]1C(=O)N(C)[C@@H](CCCC)C(=O)N[C@@H](CCCNC(=N)N)C(=O)N[C@H](C(=O)NCC(N)=O)CSCC(=O)N[C@@H](Cc2ccc(O)cc2)C(=O)N(C)[C@@H](C)C(=O)N[C@@H](CC(N)=O)C(=O)N2CCC[C@H]2C(=O)N[C@@H](CN)C(=O)N[C@@H](CCC(=O)O)C(=O)N2CCC[C@H]2C(=O)N[C@@H](Cc2c[nH]c3ccccc23)C(=O)N[C@@H](CO)C(=O)N[C@@H](Cc2csc3ccccc23)C(=O)N1C [Example 1127] ({CH2CO}-Y[NMeA]NP[Dap]EPWS[Bta][NMeNle][NMeNle]RCG-NH2; thioether N-14)
6.76 to 30.3,0.158 to 4.71,CCCC[C@H]1C(=O)N(C)[C@@H](CCCC)C(=O)N[C@@H](CCCNC(=N)N)C(=O)N[C@H](C(=O)NCC(N)=O)CSCC(=O)N[C@@H](Cc2ccc(O)cc2)C(=O)N(C)[C@@H](C)C(=O)N[C@@H](CC(N)=O)C(=O)N2CCC[C@H]2C(=O)N[C@@H](CN)C(=O)N[C@@H](CCC(=O)O)C(=O)N2C[C@H](O)C[C@H]2C(=O)N[C@@H](Cc2c[nH]c3ccccc23)C(=O)N[C@@H](CO)C(=O)N[C@@H](Cc2csc3ccccc23)C(=O)N1C [Example 1128] ({CH2CO}-Y[NMeA]NP[Dap]E[Hyp]WS[Bta][NMeNle][NMeNle]RCG-NH2; thioether N-14)
> 30.5,> 74.3,CCCC[C@H]1C(=O)N(C)[C@@H](CCCC)C(=O)N[C@@H](CCCNC(=N)N)C(=O)N[C@H](C(=O)NCC(N)=O)CSCC(=O)N[C@@H](Cc2ccc(O)cc2)C(=O)N(C)[C@@H](C)C(=O)N[C@@H](CC(N)=O)C(=O)N2CCC[C@H]2C(=O)N[C@@H](Cc2cnc[nH]2)C(=O)N[C@@H](CC(C)C)C(=O)N2CCC[C@H]2C(=O)N[C@@H](Cc2c[nH]c3ccccc23)C(=O)N[C@@H](CO)C(=O)N[C@@H](Cc2nc3ccccc3s2)C(=O)N1C [Example 1129] ({CH2CO}-Y[NMeA]NPHLPWS[Ala(benzothiazol-2-yl)][NMeNle][NMeNle]RCG-NH2; thioether N-14)
> 30.5,0.158 to 4.71,CCCC[C@H]1C(=O)N(C)[C@@H](CCCC)C(=O)N[C@@H](CCCNC(=N)N)C(=O)N[C@H](C(=O)NCC(N)=O)CSCC(=O)N[C@@H](Cc2ccc(O)cc2)C(=O)N(C)[C@@H](C)C(=O)N[C@@H](CC(N)=O)C(=O)N2CCC[C@H]2C(=O)N[C@@H](Cc2cnc[nH]2)C(=O)N[C@@H](CC(C)C)C(=O)N2CCC[C@H]2C(=O)N[C@@H](Cc2c[nH]c3ccccc23)C(=O)N[C@@H](CO)C(=O)N[C@@H](Cc2cn(C)c3ccccc23)C(=O)N1C [Example 1130] ({CH2CO}-Y[NMeA]NPHLPWS[Trp(1-Me)][NMeNle][NMeNle]RCG-NH2; thioether N-14)
0.385 to 6.74,0.158 to 4.71,CCCC[C@H]1C(=O)N(C)[C@@H](CCCC)C(=O)N[C@@H](CCN)C(=O)N[C@H](C(=O)NCC(N)=O)CSCC(=O)N[C@@H](Cc2ccc(O)cc2)C(=O)N(C)[C@@H](C)C(=O)N[C@@H](CC(N)=O)C(=O)N2CCC[C@H]2C(=O)N[C@@H](Cc2cnc[nH]2)C(=O)N[C@@H](CC(C)C)C(=O)N2C[C@H](O)C[C@H]2C(=O)N[C@@H](Cc2c[nH]c3ccccc23)C(=O)N[C@@H](CO)C(=O)N[C@@H](Cc2c[nH]c3ccccc23)C(=O)N1C [Example 1131]
